What was measured:
[1] = test system: human skin keratome biopsies; assay: Penetration of topically applied PcIV and salts into human skin, confocal fluorescence microscopy; format: in vitro ADME; details: for laser transmission at which maximum fluorescence was detectable: fluorescence inversely proportional to laser transmission, listed as PcIV
Method: Human skin absorption of PcIV was analyzed by fluorescence confocal microscopy. PcIV fluorescence, upon activation with a HeNe laser at 633 nm, was visualized using a 650 long pass filter. Briefly, 0.4 mm thick human keratomes were removed from the gluteal region of healthy volunteers and divided into 1.5 cm×1.5 cm squares of skin. Upon application of PcIV to the epidermis in a vehicle of ethanol and propylene glycol, visualization of penetration of PcIV was achieved by fluorescence. Pc 4 was then prepared as PcIV-pyruvate and PcIV-HCl and applied in the same vehicle as Pc 4 to the epidermis. Three concentrations, namely, 0.1 mg/mL, 0.05 mg/mL, and 0.01 mg/mL were tested per PcIV formulation. Skin was incubated at 37° C. for 1, 2, and 4 hours, along with vehicle controls. […] Maximum PcIV fluorescence was detectable using laser transmission of 3% for the 0.1 mg/mL and 30% for the 0.01 mg/mL. Both PcIV.pyruvate and PcIV.HCl however could be visualized with a laser transmission of 2-3% for the 0.1 mg/mL and 7-9% for the 0.01 mg/mL concentrations.
The ability of PcIV and the newly prepared PcIV salts (HCl and pyruvate) to penetrate into the epidermis of keratome derived biopsies was examined. The time course of penetrance as well as the effect of dose of the PcIV compounds were evaluated. PcIV and the PcIV.HCl and PcIV.pyruvate salts were resuspended in ethanol (100%, 1 part PcIV, 499 parts ethanol) and then diluted to final concentrations in a 30% Propylene Glycol 70% Ethanol mixture.
Keratome biopsies of normal skin were obtained from normal volunteers after written consent according to UHHS IRB protocol # 05-95-03. To date, seven experiments have been performed. The range of age for volunteers was 20-40 yrs. Individuals represented Fitzpatrick skin types between I-III. Skin biopsies were held in PBS following the keratome procedure until processed for PcIV Application (less than 1 hr). The keratome skin samples (1.5 cm^2) were overlayed onto sterile gauze in 80 mm tissue culture petri dishes epidermal side down. PcIV compounds were then applied to the corners of the sterile gauze and allowed to “wick” through the gauze and contact the epidermis of the skin for the indicated times. Following the incubation, the tissue was removed from the gauze and washed three times in phosphate buffered saline and held, in PBS, until analysis by confocal microscopy. Confocal images were acquired using a 20×N.A. 0.5 water immersion objective on a Zeiss 510 confocal microscope. PcIV fluorescence was elicited using a 633 nm wavelength for excitation, and collected with a 633 nm dichroic mirror and 650 nm long-pass filter.

[2] = Retention of Pc IV in tumor tissue (pharmacokinetic data); format: in vivo; details: after administration
[3] = test system: chemically-induced benign skin papillomas; assay: PDT of chemically induced skin tumors; format: in vivo, SENCAR mice; details: 0.5 and 1.0 mg/kg i.p. in DPPC liposomes
Method: 6-week-old female SENCAR mice received a single topical application of 5 μg DMBA in 0.2 mL acetone on the dorsal skin as tumor initiator. One week later, the animals were started on twice-weekly topical applications of 1 μg TPA in 0.2 mL acetone as tumor promoter. All of the animals developed tumors at 12 weeks. Mice that developed 4-5 tumors per animal averaging 5-8 mm in diameter and 2-5 mm in thickness were used. Pc IV, entrapped in DPPC liposomes was administered intraperitoneally at doses of either 0.5 or 1.0 mg/kg and 24 hrs later the tumor area was illuminated with light from an argon pumped dye laser tuned at 675 nm for a total light dose of 135 j/cm^2 (75 mW/cm^2). All possible controls were included; either the animals were untreated, treated only with laser light or treated only with Pc IV alone.

RIF-1 tumors = assay: RIF-1 implanted tumors, PcIV followed by multiple exposures to light; format: in vivo, C3H/HeN mice
Method: To overcome the regrowth, RIF-1 tumors were implanted in C3H/HeN mice, and the mice were treated with PcIV followed by multiple exposures to light. For multiple exposures to light to be successful, the tumor tissue must retain sufficient levels of the photosensitizer over the exposure period.

[4] = test system: skin lesions (early mycosis fungoides, squamous cell carcinoma); assay: Topical PcIV-PDT of skin lesions in patients; format: in vivo, human
Method: PcIV solution concentrations were either 0.01 mg/mL or 0.05 mg/mL. One hour after administration of the PcIV solution, the skin lesions were exposed to a 675 nm laser, dose ranging from 50-100 J/cm^2. […] Two patients felt some heat over the treatment site during the first few minutes of laser exposure. […] Because Pc 4 is a photosensitizer, individual patient sun sensitivity was monitored by serial phototesting using solar simulated radiation. […] (see FIGS. 10a and 10b).

[5] = eleven patients, topical PcIV-PDT

CN(C)CCC[Si](C)(C)O[Si]1(O)n2c3c4ccccc4c2N=C2N=C(N=c4c5ccccc5c(n41)=NC1=NC(=N3)c3ccccc31)c1ccccc12 (stereo not shown) [Compound IV, HOSiPcOSi(CH3)2(CH2)3N(CH3)2]
laser transmission at which maximum fluorescence was detectable ([1]; 0.01 mg/mL in ethanol and propylene glycol): 30% | laser transmission at which maximum fluorescence was detectable ([1]; 0.1 mg/mL in ethanol and propylene glycol): 3% | penetration into skin ([1]; 0.01-0.1 mg/mL, 1, 2 and 4 hours at 37° C.): successfully penetrated the skin to the basal layer in a dose dependent fashion | lowest concentration tested at which penetration is demonstrated ([1]; propylene glycol vehicle): 0.01 mg/mL | time to effective penetration through intact human stratum corneum ([1]; propylene glycol/ethanol vehicle): within one hour | retention in tumor tissue [2]: retained in tumor tissue even after 7 days | tumor volume after PDT ([3]; 675 nm 135 j/cm^2 24 hrs later): eventually decreased to 0 volume | tumor return ([3]; length of the study 34 days): did not return for the length of the study | % of Mice Surviving (RIF-1 tumors; 1 mg/kg in DPPC liposomes, 30 days, day of exposure 2): 100% | % of Mice Surviving (RIF-1 tumors; 1 mg/kg in DPPC liposomes, 30 days, days of exposure 2, 3, 4, 5, and 6): 0% | % of Mice Surviving (RIF-1 tumors; 1 mg/kg in DPPC liposomes, 30 days, days of exposure 2, 3, and 4): 0% | % of Mice Surviving (RIF-1 tumors; 1 mg/kg in DPPC liposomes, 30 days, days of exposure 2-6): 0% | % of Mice Surviving (RIF-1 tumors; 1 mg/kg in DPPC liposomes, 30 days, days of exposure 2 and 3): 100% | % of Mice Surviving (RIF-1 tumors; 1 mg/kg in DPPC liposomes, 30 days, days of exposure 2 and 7): 100% | % of Mice Surviving (RIF-1 tumors; 1 mg/kg in DPPC liposomes, 120 days, days of exposure 2, 3, 4, 5, and 6): 0% | % of Mice Surviving (RIF-1 tumors; 1 mg/kg in DPPC liposomes, 120 days, days of exposure 2, 3, and 4): 0% | % of Mice Surviving (RIF-1 tumors; 1 mg/kg in DPPC liposomes, 120 days, days of exposure 2-6): 0% | % of Mice Surviving (RIF-1 tumors; 1 mg/kg in corn oil, 15 days, day of exposure 2): 100% | % of Mice Surviving (RIF-1 tumors; 1 mg/kg in corn oil, 15 days, days of exposure 2, 3, 4, 5, and 6): 100% | % of Mice Surviving (RIF-1 tumors; 1 mg/kg in corn oil, 15 days, days of exposure 2, 3, and 4): 100% | % of Mice Surviving (RIF-1 tumors; 1 mg/kg in corn oil, 15 days, days of exposure 2-6): 100% | % of Mice Surviving (RIF-1 tumors; 1 mg/kg in corn oil, 15 days, days of exposure 2 and 3): 100% | % of Mice Surviving (RIF-1 tumors; 1 mg/kg in corn oil, 15 days, days of exposure 2 and 7): 100% | tumor regrowth at sacrifice (RIF-1 tumors; DPPC liposomes, three to five irradiations, 300 days after the light treatment): no evidence of tumor regrowth | tumor cure (RIF-1 tumors; entrapped in DPPC liposomes, mice irradiated three, four or five times at an interval of 24 hours): complete tumor cure | tumor regrowth (RIF-1 tumors; given in corn oil, all the multiple exposure protocols): regrowth of tumors was evident 15 days after photodynamic therapy | clinical response of lesions (erythema and infiltration) [4, 5]: Two patients showed a minimal decrease in erythema and infiltration of their lesions | cures [4, 5]: No cures have been achieved to date | TUNEL positivity in lesional skin biopsies ([4]; one patient with some clinical response, 24 hours after treatment): increase in TUNEL positivity along the superficial portion of the lesion | changes in sunburn threshold or minimum erythema dose (MED) ([4]; serial phototesting with solar simulated radiation): No significant changes were observed | adverse effects ([4]; topical 0.01 or 0.05 mg/mL, 675 nm laser 50-100 J/cm^2 one hour later, up to two weeks): No significant adverse effects were observed
